Results as given in US9802944B2, “Bicyclic compounds as autotaxin (ATX) and lysophosphatidic acid (LPA) production inhibitors” (Hoffmann-La Roche Inc., priority 2014, dated 2017).

What follows are compounds tested against ATX (human His-tagged) (Homo sapiens (Human), UniProt Q13822) (assay: Human ATX enzyme inhibition assay (fluorescence quenching, MR121 substrate)). Conditions: 30 nM ATX, 1 μM MR121 substrate, 30° C., pH 8.0.
Type: biochemical
Method: Production of Human Full Length ATX, with and without his Tag
Autotaxin (ATX-ENPP2) Cloning:
cDNA was prepared from commercial human hematopoietic cells total RNA and used as template in overlapping PCR to generate a full length human ENPP2 ORF with or without a 3′-6×His tag. These full length inserts were cloned into the pcDNA3.1V5-His TOPO (Invitrogen) vector. The DNA sequences of several single clones were verified. The DNA from a correct full length clone was used to transfect Hek293 cells for verification of protein expression. […] ATX Fermentation: Recombinant protein was produced by large-scale transient transfection in 20 L controlled stirred tank bioreactors (Sartorius). During cell growth and transfection, temperature, stirrer speed, pH and dissolved oxygen concentration were maintained at 37° C., 120 rpm, 7.1 and 30% DO, respectively. […] Expression was analyzed by Western Blot, enzymatic assay and/or analytical IMAC chromatography. After cooling the cell suspension to 4° C. in a flow-through heat exchanger, cell separation and sterile filtration of supernatant was performed by filtration through Zeta Plus 60M02 E16 (Cuno) and Sartopore 2 XLG (Sartorius) filter units. The supernatant was stored at 4° C. prior to purification. ATX Purification: 20 liter of culture supernatant were conditioned for ultrafiltration by adding Brij 35 to a final concentration of 0.02% and by adjusting the pH to 7.0 using 1 M HCl. Then the supernatant was first microfiltered through a 0.2 μm Ultran-Pilot Open Channel PES filter (Whatman) and afterwards concentrated to 1 liter through an Ultran-Pilot Screen Channel PES filter with 30 kDa MWCO (Whatman). Prior to IMAC chromatography, NiSO4 was added to a final concentration of 1 mM. The cleared supernatant was then applied to a HisTrap column (GE Healthcare) previously equilibrated in 50 mM Na2HPO4 pH 7.0, 0.5 M NaCl, 10% glycerol, 0.3% CHAPS, 0.02% NaN3. The column was washed stepwise with the same buffer containing 20 mM, 40 mM and 50 mM imidazole, respectively. The protein was subsequently eluted using a linear gradient to 0.5 M imidazole in 15 column volumes. ATX containing fractions were pooled and concentrated using an Amicon cell equipped with a 30 kDa PES filter membrane. The protein was further purified by size exclusion chromatography on Superdex S-200 prep grade (XK 26/100) (GE Healthcare) in 20 mM BICINE pH 8.5, 0.15 M NaCl, 10% glycerol, 0.3% CHAPS, 0.02% NaN3. […] The protein was stored at −80° C. […] 10 μL of MR121 substrate solution was added (1 μM final concentration), mixed 30 times and then incubated for 15 minutes at 30° C.

In order of falling IC50:
1. O=C(c1cnc(OC2COC2)c(C(F)(F)F)c1)N1C[C@@H]2CN(C(=O)c3ccc4[nH]nnc4c3)C[C@H]2C1 [Example 2.08, ((3aS,6aS)-5-(1H-benzo[d][1,2,3]triazole-5-carbonyl)hexahydropyrrolo[3,4-c]pyrrol-2(1H)-yl)(6-(oxetan-3-yloxy)-5-(trifluoromethyl)pyridin-3-yl)methanone]  68.5 nM
2. O=C(c1cnc(NC2CCOCC2)c(C2CC2)c1)N1C[C@@H]2CN(C(=O)c3ccc4[nH]nnc4c3)C[C@H]2C1 [Example 2.04, ((3aS,6aS)-5-(1H-benzo[d][1,2,3]triazole-5-carbonyl)hexahydropyrrolo[3,4-c]pyrrol-2(1H)-yl)(5-cyclopropyl-6-(tetrahydro-2H-pyran-4-ylamino)pyridin-3-yl)methanone]  40 nM
3. O=C(c1cnc(OC2CCOCC2)c(C2CC2)c1)N1C[C@@H]2CN(Cc3ccc4[nH]nnc4c3)C[C@H]2C1 [Example 4.01, ((3aS,6aS)-5-((1H-benzo[d][1,2,3]triazol-5-yl)methyl)hexahydropyrrolo[3,4-c]pyrrol-2(1H)-yl)(5-cyclopropyl-6-(tetrahydro-2H-pyran-4-yloxy)pyridin-3-yl)methanone]  39 nM
4. O=C(c1cnc(OC2CCOCC2)c(C2CC2)c1)N1C[C@@H]2CN(C(=O)c3ccc4[nH]c(=O)oc4c3)C[C@H]2C1 [Example 3, 6-((3aS,6aS)-5-(5-Cyclopropyl-6-(tetrahydro-2H-pyran-4-yloxy)nicotinoyl)octahydropyrrolo[3,4-c]pyrrole-2-carbonyl)benzo[d]oxazol-2(3H)-one]  25 nM
5. NS(=O)(=O)c1ccc(C(=O)N2C[C@H]3CN(C(=O)c4cnc(OC5CCOCC5)c(C5CC5)c4)C[C@@H]3C2)cc1 [Example 1.02, 4-((3aS,6aS)-5-(5-cyclopropyl-6-(tetrahydro-2H-pyran-4-yloxy)nicotinoyl)octahydropyrrolo[3,4-c]pyrrole-2-carbonyl)benzenesulfonamide]  22 nM
6. O=C(c1cnc(OC2CCOCC2)c(C2CC2)c1)N1C[C@@H]2CN(C(=O)[C@@H]3CCc4[nH]nnc4C3)C[C@H]2C1 [Example 2.09, ((3aS,6aS)-5-(5-cyclopropyl-6-(tetrahydro-2H-pyran-4-yloxy)nicotinoyl)hexahydropyrrolo[3,4-c]pyrrol-2(1H)-yl)((R)-4,5,6,7-tetrahydro-1H-benzo[d][1,2,3]triazol-5-yl)methanone]  20 nM
7. O=C(c1ccc(OC2CCOC2)c(C2CC2)c1)N1C[C@@H]2CN(C(=O)[C@@H]3CCc4[nH]nnc4C3)C[C@H]2C1 (stereo partly drawn) [Example 2.02, ((3aS,6aS)-5-(3-cyclopropyl-4-(tetrahydrofuran-3-yloxy)benzoyl)hexahydropyrrolo[3,4-c]pyrrol-2(1H)-yl)((R)-4,5,6,7-tetrahydro-1H-benzo[d][1,2,3]triazol-5-yl)methanone]  17 nM
8. O=C(c1cc(OCC2CCCOC2)nc(C2CC2)c1)N1C[C@@H]2CN(C(=O)[C@@H]3CCc4[nH]nnc4C3)C[C@H]2C1 (stereo partly drawn) [Example 2.16, ((3aS,6aS)-5-(2-cyclopropyl-6-((tetrahydro-2H-pyran-3-yl)methoxy)isonicotinoyl)hexahydropyrrolo[3,4-c]pyrrol-2(1H)-yl)((R)-4,5,6,7-tetrahydro-1H-benzo[d][1,2,3]triazol-5-yl)methanone]  17 nM
9. O=C(CCc1c[nH]c(=O)s1)N1C[C@H]2CCN(C(=O)c3cc(OCC4CCOCC4)nc(C4CC4)c3)CC[C@H]2C1 [Example 1.22, 5-(3-((3aR,8aS)-6-(2-cyclopropyl-6-((tetrahydro-2H-pyran-4-yl)methoxy)isonicotinoyl)octahydropyrrolo[3,4-d]azepin-2(1H)-yl)-3-oxopropyl)thiazol-2(3H)-one]  14 nM
10. O=C(c1cc(OCC2CCOCC2)nc(C2CC2)c1)N1C[C@@H]2CN(C(=O)c3ccc4[nH]nnc4c3)C[C@@H]2C1 [Example 2.26, ((3aR,6aS)-5-(1H-benzo[d][1,2,3]triazole-5-carbonyl)hexahydropyrrolo[3,4-c]pyrrol-2(1H)-yl)(2-cyclopropyl-6-((tetrahydro-2H-pyran-4-yl)methoxy)pyridin-4-yl)methanone]  14 nM
11. O=C(c1cc(OCC2CCCOC2)nc(C2CC2)c1)N1C[C@@H]2CN(C(=O)c3ccc4[nH]nnc4c3)C[C@H]2C1 (stereo partly drawn) [Example 2.15, ((3aS,6aS)-5-(1H-benzo[d][1,2,3]triazole-5-carbonyl)hexahydropyrrolo[3,4-c]pyrrol-2(1H)-yl)(2-cyclopropyl-6-((tetrahydro-2H-pyran-3-yl)methoxy)pyridin-4-yl)methanone]  12 nM
12. O=C(c1cc(OCC2CCOCC2)nc(C2CC2)c1)N1C[C@@H]2CN(C(=O)c3ccc4[nH]c(=O)oc4c3)C[C@H]2C1 [Example 3.01, 6-((3aS,6aS)-5-(2-cyclopropyl-6-((tetrahydro-2H-pyran-4-yl)methoxy)isonicotinoyl)octahydropyrrolo[3,4-c]pyrrole-2-carbonyl)benzo[d]oxazol-2(3H)-one]  12 nM
13. O=C(c1cnc(OC2CCCOC2)c(C2CC2)c1)N1C[C@@H]2CN(C(=O)[C@@H]3CCc4[nH]nnc4C3)C[C@H]2C1 (stereo partly drawn) [Example 2.12, ((3aS,6aS)-5-(5-cyclopropyl-6-(tetrahydro-2H-pyran-3-yloxy)nicotinoyl)hexahydropyrrolo[3,4-c]pyrrol-2(1H)-yl)((R)-4,5,6,7-tetrahydro-1H-benzo[d][1,2,3]triazol-5-yl)methanone]  11 nM
14. NS(=O)(=O)c1ccc(C(=O)N2C[C@H]3CN(C(=O)c4cnc(OC5CCCOC5)c(C5CC5)c4)C[C@@H]3C2)nc1 (stereo partly drawn) [Example 2.13, 6-((3aR,6aR)-5-(5-cyclopropyl-6-(tetrahydro-2H-pyran-3-yloxy)nicotinoyl)octahydropyrrolo[3,4-c]pyrrole-2-carbonyl)pyridine-3-sulfonamide]  10 nM
15. NS(=O)(=O)c1ccc(C(=O)N2C[C@H]3CN(C(=O)c4cc(OCC5CCCOC5)nc(C5CC5)c4)C[C@@H]3C2)nc1 (stereo partly drawn) [Example 2.17, 6-((3aR,6aR)-5-(2-cyclopropyl-6-((tetrahydro-2H-pyran-3-yl)methoxy)isonicotinoyl)octahydropyrrolo[3,4-c]pyrrole-2-carbonyl)pyridine-3-sulfonamide]  9 nM
16. O=C(c1cc(OCC2CCOCC2)cc(C2CC2)c1)N1CC[C@@H]2CN(C(=O)[C@@H]3CCc4[nH]nnc4C3)C[C@@H]2CC1 [Example 2.28, ((3aR,8aS)-6-(3-cyclopropyl-5-((tetrahydro-2H-pyran-4-yl)methoxy)benzoyl)octahydropyrrolo[3,4-d]azepin-2(1H)-yl)((R)-4,5,6,7-tetrahydro-1H-benzo[d][1,2,3]triazol-5-yl)methanone]  7 nM
17. NS(=O)(=O)c1ccc(C(=O)N2C[C@H]3CN(C(=O)c4cc(OCC5CCOCC5)nc(C5CC5)c4)C[C@@H]3C2)nc1 [Example 2.14, 6-((3aR,6aR)-5-(2-cyclopropyl-6-((tetrahydro-2H-pyran-4-yl)methoxy)isonicotinoyl)octahydropyrrolo[3,4-c]pyrrole-2-carbonyl)pyridine-3-sulfonamide]  6 nM
18. O=C(c1cc(OCC2CCOCC2)cc(C2CC2)c1)N1C[C@@H]2CN(C(=O)[C@@H]3CCc4[nH]nnc4C3)C[C@H]2C1 [Example 1.16, ((3aS,6aS)-5-(3-cyclopropyl-5-((tetrahydro-2H-pyran-4-yl)methoxy)benzoyl)hexahydropyrrolo[3,4-c]pyrrol-2(1H)-yl)((R)-4,5,6,7-tetrahydro-1H-benzo[d][1,2,3]triazol-5-yl)methanone]  6 nM
19. NS(=O)(=O)c1ccc(C(=O)N2C[C@H]3CN(C(=O)c4cc(OCC5CCOCC5)nc(C5CC5)c4)C[C@@H]3C2)cc1Cl [Example 1.05, 2-chloro-4-((3aR,6aR)-5-(2-cyclopropyl-6-((tetrahydro-2H-pyran-4-yl)methoxy)isonicotinoyl)octahydropyrrolo[3,4-c]pyrrole-2-carbonyl)benzenesulfonamide]  6 nM
20. O=C(OCc1c[nH]nn1)N1C[C@H]2CCN(C(=O)c3cc(OCC4CCOCC4)nc(C4CC4)c3)CC[C@H]2C1 [Example 7, 1H-Triazol-4-ylmethyl (3aS,8aR)-6-[2-cyclopropyl-6-(oxan-4-ylmethoxy)pyridine-4-carbonyl]-1,3,3a,4,5,7,8,8a-octahydropyrrolo[3,4-d]azepine-2-carboxylate]  6 nM
